Measurements: US20070185149A1, “Novel amido-substituted hydroxy-6-phenylphenanthridines and their use as pde4 inhibtors” (ALTANA PHARMA AG, priority 2004, published 2007)

Target: T1, PDE4B2 (Homo sapiens, UniProt Q07343)
T1 construct: made in house; host or cells: SF21 insect cells (baculovirus; virus prepared in SF9 cells)
Assay: Inhibition of PDE4 activity: PDE4B2 [3H]cAMP SPA enzyme assay
Format: biochemical
Conditions: recombinant PDE4B2 (SF21 cell supernatant), modified SPA test, 0.5 μM cAMP, 15 min at 37° C.; read-out: Inhibition of the PDE4 activity, −log IC50 (converted)
Experimental: The PDE4B2 (GB no. M97515) was a gift of Prof. M. Conti (Stanford University, USA). It was amplified from the original plasmid (pCMV5) via PCR with primers Rb9 (5′-[…]-3′) and Rb10 (5′-[…]-3′) and cloned into the pCR-Bac vector (Invitrogen, Groningen, NL).
The recombinant baculovirus was prepared by means of homologous recombination in SF9 insect cells.
The expression plasmid was cotransfected with Bac-N-Blue (Invitrogen, Groningen, NL) or Baculo-Gold DNA (Pharmingen, Hamburg) using a standard protocol (Pharmingen, Hamburg). Wt virus-free recombinant virus supernatant was selected using plaque assay methods. After that, high-titre virus supernatant was prepared by amplifying 3 times. PDE was expressed in SF21 cells by infecting 2×10^6 cells/ml with an MOI (multiplicity of infection) between 1 and 10 in serum-free SF900 medium (Life Technologies, Paisley, UK). The cells were cultured at 28° C. for 48-72 hours, after which they were pelleted for 5-10 min at 1000 g and 4° C.
The SF21 insect cells were resuspended, at a concentration of approx. 10^7 cells/ml, in ice-cold (4° C.) homogenization buffer (20 mM Tris, pH 8.2, containing the following additions: 140 mM NaCl, 3.8 mM KCl, 1 mM EGTA, 1 mM MgCl2, 10 mM β-mercaptoethanol, 2 mM benzamidine, 0.4 mM Pefablock, 10 μM leupeptin, 10 μM pepstatin A, 5 μM trypsin inhibitor) and disrupted by ultrasonication. The homogenate was then centrifuged for 10 min at 1000×g and the supernatant was stored at −80° C. until subsequent use (see below). The protein content was determined by the Bradford method (BioRad, Munich) using BSA as the standard.
PDE4B2 activity is inhibited by the said compounds in a modified SPA (scintillation proximity assay) test, supplied by Amersham Biosciences (see procedural instructions “phosphodiesterase [3H]cAMP SPA enzyme assay, code TRKQ 7090”), carried out in 96-well microtitre plates (MTP's). The test volume is 100 μl and contains 20 mM Tris buffer (pH 7.4), 0.1 mg of BSA (bovine serum albumin)/ml, 5 mM Mg^2+, 0.5 μM cAMP (including about 50,000 cpm of [3H]cAMP), 1 μl of the respective substance dilution in DMSO and sufficient recombinant PDE (1000×g supernatant, see above) to ensure that 10-20% of the cAMP is converted under the said experimental conditions. […] After a preincubation of 5 min at 37° C., the reaction is started by adding the substrate (cAMP) and the assay is incubated for a further 15 min; after that, it is stopped by adding SPA beads (50 μl). In accordance with the manufacturer's instructions, the SPA beads had previously been resuspended in water, but were then diluted 1:3 (v/v) in water; the diluted solution also contains 3 mM IBMX to ensure a complete PDE activity stop. After the beads have been sedimented (>30 min), the MTP's are analyzed in commercially available […]. The corresponding IC50 values of the compounds for the inhibition of PDE activity are determined from the concentration-effect curves by means of non-linear regression.

T1 sequence (Q07343 1-564 isoform Q07343-2): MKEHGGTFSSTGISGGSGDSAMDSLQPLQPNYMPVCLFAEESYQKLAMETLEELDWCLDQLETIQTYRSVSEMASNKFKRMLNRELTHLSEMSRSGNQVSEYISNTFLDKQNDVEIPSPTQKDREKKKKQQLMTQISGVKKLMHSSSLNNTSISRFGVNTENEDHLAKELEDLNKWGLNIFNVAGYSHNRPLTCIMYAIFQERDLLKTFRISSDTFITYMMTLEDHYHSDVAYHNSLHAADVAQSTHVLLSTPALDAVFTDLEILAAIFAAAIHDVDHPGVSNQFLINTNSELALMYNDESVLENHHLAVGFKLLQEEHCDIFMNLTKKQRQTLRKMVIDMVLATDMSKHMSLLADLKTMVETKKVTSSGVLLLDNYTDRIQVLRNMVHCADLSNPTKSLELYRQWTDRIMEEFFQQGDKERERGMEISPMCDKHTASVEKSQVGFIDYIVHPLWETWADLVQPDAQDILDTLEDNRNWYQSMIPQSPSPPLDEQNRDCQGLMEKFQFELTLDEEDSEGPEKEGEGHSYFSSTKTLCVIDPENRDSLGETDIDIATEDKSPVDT

IC50, 0.955 to 8.71 nM:
COc1cc2c(cc1OC)[C@H]1C[C@H](O)CC[C@H]1N=C2c1ccc(C(=O)Nc2cnc3ccccc3c2)cc1 (racemic) [Compound 6, 4-((2RS,4aRS,10bRS)-2-Hydroxy-8,9-dimethoxy-1,2,3,4,4a,10b-hexahydro-phenanthridin-6-yl)-N-quinolin-3-yl-benzamide]
COCCN(CCOC)C(=O)c1ccc(C2=N[C@@H]3CC[C@@H](O)C[C@@H]3c3cc(OC(F)F)c(OC)cc32)cc1 (racemic) [Compound 26, 4-[(2RS,4aRS,10bRS)-9-(1,1-Difluoro-methoxy)-2-hydroxy-8-methoxy-1,2,3,4,4a,10b-hexahydro-phenanthridin-6-yl]-N,N-bis(2-methoxy-ethyl)-benzamide]
COc1cc2c(cc1OC(F)F)[C@H]1C[C@H](O)CC[C@H]1N=C2c1ccc(C(=O)N2CCN(c3ccncc3)CC2)cc1 (racemic) [Compound 30, 1-{4-[(2RS,4aRS,10bRS)-9-(1,1-Difluoro-methoxy)-2-hydroxy-8-methoxy-1,2,3,4,4a,10b-hexahydro-phenanthridin-6-yl]-phenyl}-1-(4-pyridin-4-yl-piperazin-1-yl)-methanone]
COc1cc2c(cc1OC)C1CC(O)CCC1N=C2c1ccc(C(=O)NCCN2CCOCC2)cc1 (stereo not shown) [Compound 1]
COc1cc2c(cc1OC(F)F)C1CC(O)CCC1N=C2c1ccc(C(=O)N2CCN(CC(=O)N(C)C)CC2)cc1 (stereo not drawn) [Compound 34, 2-[4-(1-{4-[(2RS,4aRS,10bRS)-9-(1,1-Difluoro-methoxy)-2-hydroxy-8-methoxy-1,2,3,4,4a,10bhexahydro-phenanthridin-6-yl]-phenyl}-methanoyl)-piperazin-1-yl]-N,N-dimethyl-acetamide]
COc1cc2c(cc1OC(F)F)[C@H]1C[C@H](O)CC[C@H]1N=C2c1ccc(C(=O)NC2CC2)cc1 (racemic) [Compound 25, N-Cyclopropyl-4-[(2RS,4aRS,10bRS)-9-(1,1-difluoro-methoxy)-2-hydroxy8-methoxy-1,2,3,4,4a,10b-hexahydro-phenanthridin-6-yl]-benzamide]
COc1cc2c(cc1OC)C1CC(O)CCC1N=C2c1ccc(C(=O)NN2CCOCC2)cc1 (stereo not shown) [Compound 4]
COc1cc2c(cc1OC)[C@H]1C[C@H](O)CC[C@H]1N=C2c1ccc(C(=O)N2CCN(CC(=O)Nc3ccccn3)CC2)cc1 (racemic) [Compound 15, 2-(4-{1-[4-((2RS,4aRS,10bRS)-2-Hydroxy-8,9-dimethoxy-1,2,3,4,4a,10b-hexahydro-phenanthridin-6-yl)-phenyl]-methanoyl}-piperazin-1-yl)-N-pyridin-2-yl-acetamide]
COc1cc2c(cc1OC(F)F)[C@H]1C[C@H](O)CC[C@H]1N=C2c1ccc(C(=O)N(C)C)cc1 (racemic) [Compound 24, 4-[(2RS,4aRS,10bRS)-9-(1,1-Difluoro-methoxy)-2-hydroxy-8-methoxy-1,2,3,4,4a,10b-hexahydro-phenanthridin-6-yl]-N,N-dimethyl-benzamide]
COc1cc2c(cc1OC)[C@H]1C[C@H](O)CC[C@H]1N=C2c1ccc(C(=O)N2CCN(CC(=O)Nc3cccnc3)CC2)cc1 (racemic) [Compound 13, 2-(4-{1-[4-((2RS,4aRS,10bRS)-2-Hydroxy-8,9-dimethoxy-1,2,3,4,4a,10b-hexahydro-phenanthridin-6-yl)phenyl]methanoyl}-piperazin-1-yl)-N-pyridin-3-yl-acetamide]
COc1cc2c(cc1OC)[C@H]1C[C@H](O)CC[C@H]1N=C2c1ccc(C(=O)N2CCN(CC(=O)N3CCCC3)CC2)cc1 (racemic) [Compound 12, 2-(4-{1-[4-((2RS,4aRS,10bRS)-2-Hydroxy-8,9-dimethoxy-1,2,3,4,4a,10b-hexahydro-phenanthridin-6-yl)-phenyl]-methanoyl}-piperazin-1-yl)-1-pyrrolidin-1-yl-ethanone]
CCN(CCOC)C(=O)c1ccc(C2=NC3CCC(O)CC3c3cc(OC)c(OC)cc32)cc1 (stereo not shown) [Compound 10]
COc1cc2c(cc1OC(F)F)[C@H]1C[C@H](O)CC[C@H]1N=C2c1ccc(C(=O)N2CCN(CCN3CCOCC3)CC2)cc1 (racemic) [Compound 29, 1-{4-[(2RS,4aRS,10bRS)-9-(1,1-Difluoro-methoxy)-2-hydroxy-8-methoxy-1,2,3,4,4a,10b-hexahydro-phenanthridin-6-yl]-phenyl}-1-[4(2-morpholin-4-yl-ethyl)-piperazin-1-yl]-methanone]
